{
  "source": "paper PMC10111022",
  "about": "“Comparison of pharmacological inhibitors of lysine-specific demethylase 1 in glioblastoma stem cells reveals inhibitor-specific efficacy profiles” (Frontiers in Neurology, 2023)",
  "key": {"MDA-GSC 262": {"tested_on": "MDA-GSC 262", "test": "Cell viability dose response (IC50), MDA-GSC 262", "format": "cell-based", "settings": "Homo sapiens, mean of three independent experiments", "protocol": "(§1) MDA-GSCs were plated at 50,000 cells/well into 12-well plates at and allowed to grow for 5 days until neurospheres were formed. The cells were then treated with either TCP, GSK-LSD1, or RN-1 at various concentrations for 5 days. Next, the cells were collected and neurospheres were dissociated with Accutase (BioLegend; San Diego, CA). Cell viability was determined using a trypan dye exclusion assay and read with the Vi-Cell XR Cell Viability Analyzer (Beckman Coulter; Brea, CA). NHAs were plated at 50,000 cells/well into 12-well plates and allowed to adhere overnight. The following day, NHAs were treated with the LSD1 inhibitors. After 5 days, the cells were detached using TrypLE and assessed with the trypan blue dye exclusion assay.\n(§2) The alamarBlue cell viability (Bio-Rad; Hercules, CA) was performed on the MDA-GSCs according to the manufacturer’s protocol. The cells were plated at 5,000 cell/well into a 96-well plate and allowed to grow for 5 days. After 5 days, the alamarBlue reagent was added and fluorescence was measured with the Synergy 2 (BioTek Instruments; Winooski, VT) plate reader according to the manufacturer’s protocol."}, "MDA-GSC 6–27": {"tested_on": "MDA-GSC 6–27", "test": "Cell viability dose response (IC50), MDA-GSC 6–27", "format": "cell-based", "settings": "Homo sapiens, mean of three independent experiments", "protocol": "as §1, §2"}, "[1]": {"tested_on": "MDA-GSC311, MDA-GSC20, MDA-GSC23, MDA-GSC8-11", "test": "Colony (neurosphere) formation assay", "format": "cell-based, Human", "settings": "three of the four cell lines; 200-400 μM, 3 weeks", "protocol": "Colony formation assay was performed on MDA-GSC 311, MDA-GSC 20, MDA-GSC 23, and MDA-GSC 8–11. Cells were plated in triplicate into clear, flat-bottom 96-well plates at 3 cells/well into 100 μL of media. MDA-GSCs were treated with 100 μL of GSK-LSD1 and allowed to grow for 3 weeks at 37°C before scoring. The final concentration of GSK-LSD1 in each well was determined using the IC50 in each cell line (MDA-GSC 311 at 200 μM, MDA-GSC 20 at 300 μM, MDA-GSC 23 at 200 μM, MDA-GSC 8–11 at 400 μM). Clonogenicity was scored using the Cell3iMager (Screen Life Science; Elk Grove Village, IL) to count the number of wells with colony formation as positive and wells without colony formation as negative."}, "[2]": {"test": "Complete blood count at day 50 in xenograft mice", "format": "in vivo, athymic nude mice", "protocol": "Once confirmation of intracranial tumor engraftment at 7 days post-engraftment, the mice were equally randomized into groups to receive either GSK-LSD1 or the vehicle control. The mice received GSK-LSD1 1 mg/kg diluted in DMSO and PBS (5 and 95%, respectively) via intraperitoneal injection (200 μL/mouse) while the control mice received the untreated vehicle in parallel. In accordance with the approved IACUC protocol (No: 638-RN03) at MD Anderson Cancer Center, treatment continued until the mice succumbed to tumor burden and were found in a moribund condition as determined by neurological impairment (hydrocephalus, seizures, inactivity, and/or ataxia) or morbidity (hunched posture or weight loss). At this time mice were euthanized by both carbon dioxide exposure and cervical dislocation. Flow cytometric characterization of immune cell subsets was carried out in blood samples obtained from mice (four control mice and six GSK-LSD1 mice) in each group at day 50 via cardiac puncture and the sample was processed using Ficoll (GE Healthcare; Chicago, IL) centrifugation to collect the peripheral blood mononuclear cells (PBMCs). Next, PBMCs were stained with the Ghost Dye Violet (Tonbo; San Diego, CA) and then incubated with antibodies at 4°C for 25 min before analysis. The antibodies anti-NKG2D APC (Biolegend #320807), CD16-PE-Cy7 (ThermoFisher #25–0168-42), CD56-PE (BD Biosciences #345812), anti-CD3-FITC (Biolegend; #100305), CD4-PerCP (ThermoFisher #MHCD0431), anti-CD8-ACP-Cy7 (Biolegend #344713), and anti-SLAMF7-PE (eBioscience #12–2,229-42) were used in concentrations recommended per manufacturer’s instruction. Samples were washed and resuspended in FACS buffer for analysis on a Fortessa flow cytometer (BD Biosciences; Haryana, India).\nGiven the effect on tumor regression required almost 2 months of treatment, we sought to determine if any hematological toxicities were present from the prolonged exposure to LSD1 inhibition. At day 50, a subset of mice from each group were sacrificed and blood was collected for evaluation with a Complete Blood Count (CBC) to compare different populations of blood cells. […] However, the platelet count in the GSK-LSD1 receiving mice is higher compared to the control and may be secondary to the underlying tumor burden (Figure 5F). The WBC differential further confirmed the absence of hematological toxicity with no difference between the GSK-LSD1 and the control group in any of the individual cell types (Figure 5G). […] In parallel, the peripheral blood mononuclear cells (PBMCs) were also isolated and probed to assess the effect of GSK-LSD1. Prior studies of LSD1 inhibition via pharmacological inhibitors prompted the assessment of GSK-LSD1 effect on different subpopulations of natural killer (NK) cells and T-cells ([26], [30])."}, "MDA-GSC8-11": {"tested_on": "MDA-GSC8-11", "test": "qPCR of resistance-related genes, MDA-GSC8-11", "format": "cell-based, Human", "settings": "MDA-GSC8-11 (resistant)", "protocol": "(§3) Total RNA was extracted using RNeasy Plus Mini Kit (Qiagen; Hilden, Germany) following the manufacturer’s protocol. cDNA was synthesized with the iScript cDNA synthesis kit (Bio-Rad; Hercules, CA), qPCR was performed using Forget-Me-Not EvaGreen qPCR kit (Biotium; Fremont, CA), and samples were analyzed with the LightCycler96 (Roche; Basel, Switzerland). Cq values were normalized to PPIA and reported as relative fold change from untreated control."}, "brain tissue": {"tested_on": "brain tissue", "test": "qPCR of resistance-related genes in brain tissue of treated xenograft mouse", "format": "in vivo", "settings": "treated mouse vs control mouse after succumbing to tumor burden", "protocol": "as §3\nWe then measured the gene expression of the candidate gene set in brain tissue of a mouse treated with GSK-LSD1 compared to a control mouse after they succumbed to tumor burden. […] Finally, we assessed the presence of this gene set in patient data acquired from TCGA ([17], [18]). In a dataset of glioblastoma patient samples, LSD1 expression has an inverse relationship with the genes that correlate with resistance (Figures 6H,I). We then assessed the correlation between resistance related gene expression and GBM subtypes using TCGA (Figure 6J). From this analysis, we find that the mesenchymal subtype has an increased expression of HKDC1 and RAB3IL1 compared to classical and proneural. […] Overall, our established gene set may predict resistance to LSD1 inhibition and is concordant across in vitro experiments, in vivo studies, and is expressed in a LSD1 dependent manner in GBM patients."}},
  "data": [
    {"smiles": "c1ccc([C@@H]2C[C@H]2NC2CCNCC2)cc1", "note": "[GSK-LSD1]", "values": [
      {"measurement": "IC50", "setting": "MDA-GSC 262", "result": "> 750", "unit": "µM"},
      {"measurement": "IC50", "setting": "MDA-GSC 6–27", "result": 598, "unit": "µM"},
      {"measurement": "capacity to form neurospheres from single cells", "setting": "[1]", "result": "reduced capacity to form neurospheres"},
      {"measurement": "leukopenia or erythropenia (CBC)", "setting": "[2]; day 50, 1 mg/kg intraperitoneal, vs untreated mice", "result": "no evidence of leukopenia or erythropenia"},
      {"measurement": "platelet count", "setting": "[2]; day 50, compared to the control", "result": "higher"},
      {"measurement": "WBC differential, individual cell types", "setting": "[2]; day 50, vs control group", "result": "no difference"},
      {"measurement": "RBC indices", "setting": "[2]; day 50, except for red cell distribution width (RDW)", "result": "largely demonstrate no effect"},
      {"measurement": "expression of resistance-related genes", "setting": "MDA-GSC8-11", "result": "increase in the same two gene"},
      {"measurement": "expression of candidate gene set in brain tissue", "setting": "brain tissue", "result": "three of the four genes, except for FAM213A, were upregulated"}
    ]}
  ]
}
